# Results: patent US10251902B2, “Pharmaceutical composition for treating or preventing neuropsychiatric disease, containing flavone-6-C-glucose derivatives as active ingredients” (priority 2013, dated 2019)
# What was measured:
# mouse model of stroke = assay: Y-maze test in mouse model of stroke; format: in vivo, ICR mice; settings: for Alternation Behavior (%): Table 11, test on 7th day; for Total Entry: Table 12
# Description: (§1) Seven-week old ICR mice in about 30 g to 35 g (Orientbio Inc, Republic of Korea) were received water and feed without constraint and adapted for 5 days under an environment having about 23±1° C. of temperature, about 60±10% of humidity and 12-hour light/dark cycle (animal laboratory at College of Pharmacy, Kyung-Hee University), and then used for the experiment.
# The laboratory animal in 1) was located in an operating room, adapted for 60 minutes, and anesthetized in a space providing anaesthetic gasses (nitrous oxide: 70%; oxygen: 30%; isoflurane: 2.0%). Pain reflex was examined to confirm the anesthesia. The laboratory animal was lain down straight on an operating table, and fixed its upper limb and head. Skin from the spot, where the upper limb and the center line meet, was incised as 1.5 cm to expose the both common carotid arteries by using tweezers while not damaging the tissues. Tissues and nerves attached to the exposed carotid arteries were separated and fixed with an aneurysm clip. The clip was removed after 15 minutes and reperfused, and the incised area was sutured with sutures. After the suture, the laboratory animal was immediately moved to a recovery room (32-33° C., O2 enrichment condition) and kept until it recovers from anesthesia. Observation on its weight and status was conducted once a day for 4 days after the operation.
# Administration of the Swertia japonica extract prepared in Example 1 was initiated to the mice prepared in the 1) immediately after the operation 3), and kept administering at the same time for 7 days. Five groups (5 mice per each group) were prepared as drug administration groups 1, 2 and 3, wherein the Swertia japonica extract prepared in Example 1 was administered thereto; and controls 1 and 2. 50 mg/kg, 100 mg/kg and 200 mg/kg of the Swertia japonica extract was administered to the drug administration groups 1, 2 and 3 respectively; and 0.15 mL of Tween 80 was administered to the controls 1 and 2 respectively. At the 7th day from the initial administration, the Y-maze test was conducted for the drug administration groups 1 to 3 and the controls 1 to 2 in the same manner as Experimental Example 1-5.
# After 60 minutes, mice of the drug administration groups 1-3 and the controls 1-2 were carefully located on each branches of the Y-maze, which was divided as A, B and C respectively, and let the mice move freely for 8 minutes, and then recorded branches that mice have entered. The entrance was recorded when the entire body (i.e. including the tail) has completely entered. It was also recorded when the mice entered again into the branch that the mice have entered before. The result was converted into % via Equation 1.
# Administration of swertisin prepared in Example 3 was initiated to the mice prepared in 1) immediately after the operation 3), and kept administering at the same time for 7 days. Five groups (5 mice per each group) were prepared as drug administration groups 1, 2 and 3, wherein swertisin prepared in Example 3 was administered thereto; and controls 1 and 2. 50 mg/kg, 100 mg/kg and 200 mg/kg of swertisin was administered to the drug administration groups 1, 2 and 3 respectively; and 0.15 mL of Tween 80 was administered to the controls 1 and 2 respectively. At the 7th day from the initial administration, the Y-maze test was conducted for the drug administration groups 1 to 3 and the controls 1 to 2 in the same manner as Experimental Example 1.
# [1] = test system: anxiety symptoms in a normal status; assay: Marble burying test; format: in vivo, ICR mice; settings: swertisin 10 mg/kg
# Description: as §1, with “Six-week” for “Seven-week”, “26” for “30”, “28” for “35”
# As a method of measuring alleviation of anxiety symptoms in a normal status, the marble burying test was conducted based on the nature of mice that they dig when feel anxiety. Inside of a cage in size of 40 cm s 27 cm s 18 cm was covered with straw to the height of 4 cm, and 25 marbles having same pattern were arranged at intervals of 3 cm. Two groups (10 mice per each group) were prepared as the drug administration group 1, wherein swertisin, which is one of the flavone-6-C-β-D-glucose derivatives prepared in Example 3, was administered, and the control 1. […]
# After 60 minutes of administration, mice of the drug administration group 1 and the control 1 were carefully located in the cage having the marbles and the mice were allowed to move freely for 30 minutes. After 30 minutes, the number of buried marbles under straw was counted. […] The more the number of buried marbles, it was assessed that the laboratory animal feels anxiety severer (Broekkamp, C L. et al., Eur J Pharmacol., 126, pp 223-229, 1986).
# [2] = swertisin 50 mg/kg for 7 days after stroke operation
# [3] = swertisin 100 mg/kg for 7 days after stroke operation
# [4] = swertisin 200 mg/kg for 7 days after stroke operation
smiles,measurement,setting,value
COc1cc2oc(-c3ccc(O)cc3)cc(=O)c2c(O)c1[C@@H]1O[C@H](CO)[C@@H](O)[C@H](O)[C@H]1O [swertisin],Alternation Behavior (%),mouse model of stroke; [2],56.10 ± 7.431%
same,Alternation Behavior (%),mouse model of stroke; [3],57.58 ± 12.86%
same,Alternation Behavior (%),mouse model of stroke; [4],70.46 ± 15.74%
same,Total Entry,mouse model of stroke; [2],24.14 ± 2.478
same,Total Entry,mouse model of stroke; [3],28.50 ± 6.364
same,Total Entry,mouse model of stroke; [4],22.00 ± 5.958
same,"number of the buried marbles compared to that of the control 1, in words",[1],decreased
same,Number of Buried Marbles,"[1]; 60 minutes after administration, 30 minutes in cage, 25 marbles",21.78 ± 1.856
